Laboratory results as given in paper PMC8580996, “2-Oxoglutarate derivatives can selectively enhance or inhibit the activity of human oxygenases” (Nature Communications, 2021).
“And” between values parts separate entries of the source, which are not always exact repeats. Equal values may be shown once. “Also recorded” adds a separate entry of the source. Read-outs that look alike come from different tables or passages of the source.

What was measured:
[1] = molecular target: T1, FIH (Homo sapiens, UniProt Q9NWT6); experiment: SPE-MS FIH turnover (cosubstrate) assay in the absence of 2OG; format: biochemical; settings: 330 μM 2OG or 2OG derivative, no 2OG, t = 15 min
Procedure, shortened: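 With 2OG omitted, 2OG analogues were tested as cosubstrates for recombinant FIH, and +16 Da hydroxylated product versus remaining substrate was monitored by C4 solid-phase extraction coupled to MS. Percent conversion came from product integral over summed substrate and product integrals.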

[2] = molecular target: T2, AspH (Homo sapiens, UniProt Q12797); settings: 0.05 μM AspH, 1.0 μM hFX-CP101-119, 3.0 μM 2OG, ref 21 (supplementary ref 1); cited from earlier work
T2 construct: the tetratricopeptide repeat domain (His6-AspH315-758), was produced and purified as previously reported; made in house
T2 sequence (Q12797 315-758): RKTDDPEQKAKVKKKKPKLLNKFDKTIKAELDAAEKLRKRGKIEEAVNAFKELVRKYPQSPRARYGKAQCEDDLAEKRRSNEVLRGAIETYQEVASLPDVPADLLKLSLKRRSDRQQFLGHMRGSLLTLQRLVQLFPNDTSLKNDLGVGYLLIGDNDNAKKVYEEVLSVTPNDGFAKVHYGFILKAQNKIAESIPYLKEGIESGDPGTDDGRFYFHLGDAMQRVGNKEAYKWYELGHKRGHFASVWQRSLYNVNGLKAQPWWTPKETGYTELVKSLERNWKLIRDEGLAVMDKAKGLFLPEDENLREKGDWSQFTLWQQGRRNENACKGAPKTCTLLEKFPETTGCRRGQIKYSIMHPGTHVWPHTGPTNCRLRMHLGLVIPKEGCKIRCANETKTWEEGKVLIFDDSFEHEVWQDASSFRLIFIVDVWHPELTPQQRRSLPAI

[3] = molecular target: T1, FIH; experiment: SPE-MS FIH inhibition assay; format: biochemical; for IC50 FIH: 0.15 µM FIH
Procedure, shortened: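 Compounds in an 11-point, about threefold series (top 100 μM, 0.5% DMSO) were preincubated 15 min at 20 °C with 0.3 μM His6-FIH enzyme mixture. They were then mixed with substrate mixture containing 10.0 μM HIF-1α788–822, 200 μM ascorbate, 20.0 μM 2OG and 20.0 μM Fe(II) in 50 mM Tris/50 mM NaCl pH 7.5. After 15 min, formic acid quench and SPE-MS gave % hydroxylation.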

[4] = source data of Table 3, single independent replicates, read-out: FIH IC50, independent replicate
[5] = source data of Table 3, single independent replicates

T1 sequence (Q9NWT6 whole entry): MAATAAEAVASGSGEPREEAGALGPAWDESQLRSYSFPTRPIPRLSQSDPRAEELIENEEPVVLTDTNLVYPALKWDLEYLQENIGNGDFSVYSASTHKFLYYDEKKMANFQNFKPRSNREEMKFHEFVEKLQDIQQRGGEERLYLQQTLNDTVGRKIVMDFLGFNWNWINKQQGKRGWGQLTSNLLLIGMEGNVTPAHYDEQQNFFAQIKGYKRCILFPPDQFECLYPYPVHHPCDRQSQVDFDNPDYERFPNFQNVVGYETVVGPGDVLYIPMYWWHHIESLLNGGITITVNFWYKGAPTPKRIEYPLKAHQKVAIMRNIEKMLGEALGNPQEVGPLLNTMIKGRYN

Structure (SMILES) | FIH activity, %-substrate conversion ([1]; CA1–20 substrate) | FIH activity, %-substrate conversion ([1]; HIF-1α788–822 substrate) | IC50 [2] | IC50 FIH ([3]; […] FIH, 5.0 μM HIF-1α788-822, 10 μM 2OG, mean of two runs) | IC50 [3, 4] | IC50 AspH [2] | FIH IC50, independent replicate [3, 5] | IC50 ([3]; […] FIH, 5.0 μM HIF-1α788-822, 10 μM 2OG, mean of two runs, read-out: IC50 FIH)
O=C(O)C(=O)C1CCC(C(=O)O)C1 (stereo not drawn) [compound 22, 3-(carboxycarbonyl)cyclopentane-1-carboxylic acid] | ~5% | ~2% | 5 µM | inactive |  |  |  | 
O=C(O)CCC(=O)C(=O)O [2OG, 2-Oxoglutarate] | > 95% | ~50% |  |  |  |  |  | 
O=C(O)C(=O)CC(CCCc1ccccc1)C(=O)O (stereo not drawn) [compound 18, 4-(3-phenylpropyl)-2OG] | ^c<1% ^d<1% | ^c<1% ^d<1% |  |  | 0.864 µM and 0.923 µM |  |  | 
CC(CC(=O)C(=O)O)C(=O)O (stereo not drawn) [compound 12, 4-methyl-2OG] | ~80% | ~45% |  |  |  | inactive; also recorded: neither inhibits AspH nor FIH | not inhibiting | 
CC(CC(=O)O)C(=O)C(=O)O (stereo not drawn) [compound 1, 3-methyl-2OG] | > 90% | ~55% |  |  |  | inactive | not inhibiting | 
CCC(CC(=O)C(=O)O)C(=O)O (stereo not drawn) [compound 14, 4-ethyl-2OG] | ~75% | ~10% |  |  | 27.8 µM and 13.3 µM and 16.6 µM |  |  | 19.3 µM
